Source: patent publication US9828350B2, “5,6-dihydro-2H-[1,4]oxazin-3-yl-amine derivatives useful as inhibitors of beta-secretase (BACE)” (Janssen Pharmaceutica NV, priority 2010, dated 2017)
Counter-ions that a name gives are not always drawn.

How the values were obtained:
[1] = target: recombinant BACE1 protein (Homo sapiens, UniProt P56817); experiment: Biochemical FRET based assay; details: recombinant BACE1 1 μg/ml, 120 minutes at room temperature, pH 5.0; for IC50: read-out: Biochemical FRET based assay pIC50 (converted)
Chain of recombinant BACE1 protein (P56817 46-501): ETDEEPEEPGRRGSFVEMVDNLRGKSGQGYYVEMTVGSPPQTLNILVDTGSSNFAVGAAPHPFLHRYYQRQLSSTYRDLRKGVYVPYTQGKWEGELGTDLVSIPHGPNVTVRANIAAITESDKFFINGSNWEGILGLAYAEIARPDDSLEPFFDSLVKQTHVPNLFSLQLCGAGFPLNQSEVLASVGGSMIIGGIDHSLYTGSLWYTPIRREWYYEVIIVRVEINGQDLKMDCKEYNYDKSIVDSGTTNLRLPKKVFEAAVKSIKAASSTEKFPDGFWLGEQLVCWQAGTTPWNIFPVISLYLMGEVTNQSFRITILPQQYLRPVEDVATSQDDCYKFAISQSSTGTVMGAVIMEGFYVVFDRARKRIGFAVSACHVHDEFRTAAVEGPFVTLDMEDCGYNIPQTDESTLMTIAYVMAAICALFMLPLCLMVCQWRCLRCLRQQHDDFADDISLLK
How it was run: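 Proteolysis was read as the rise in donor fluorescence (320 nm excitation, 405 nm emission) from T0 to T120, expressed in RFU. The reaction ran 120 minutes at room temperature at pH 5.0 in citrate buffer with 4% DMSO, using […] quenched Swedish APP peptide and 1 μg/ml BACE1.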

Abeta total = experiment: Cellular αLisa assay in SKNBE2 cells, Abeta total; format: cell-based, human; details: incubated for 18 hours; for IC50: Homo sapiens, SKNBE2, 18 h, read-out: Cellular αLisa assay in SKNBE2 cells Abetatotal pIC50 (converted)
How it was run: (§1)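 Secreted Abeta levels were measured by sandwich αLisa, pairing biotin-AbN/25 donor beads with Ab4G8 acceptor beads for total Abeta or cAb42/26 for Abeta 1-42, read at 615 nm after 650 nm excitation following 1 hour. Cells were SKNBE2 expressing wild-type hAPP695, exposed to compound for 18 hours.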

Abeta 1-42 = experiment: Cellular αLisa assay in SKNBE2 cells, Abeta 1-42; format: cell-based, human; details: incubated for 18 hours; for IC50: Homo sapiens, SKNBE2, 18 h, read-out: Cellular αLisa assay in SKNBE2 cells Abeta 42 pIC50 (converted)
How it was run: as §1

Aβ42 = experiment: Demonstration of in vivo efficacy, brain Aβ42 lowering (ELISA); details: mouse brain
Excerpt: (§2) To determine whether acute administration of an Aβ42 peptide lowering agent would reduce Aβ peptide levels in vivo, non-transgenic rodents, e.g. mice or rats were used. Animals treated with the Aβ peptide lowering agent were examined and compared to those untreated or treated with vehicle and brain levels of soluble Aβ42 and total Aβ were quantitated by standard techniques, for example, using ELISA.
(§3) A typical protocol for measuring Aβ42 lowering in vivo is shown but it is only one of many variations that could be used to optimize the levels of detectable Aβ. For example, Aβ peptide lowering compounds were formulated in 20% hydroxypropyl 3 cyclodextrin. The Aβ peptide lowering agents were administered as a single oral dose (p.o.) or a single subcutaneous dose (s.c.) to overnight fasted animals. After a certain time, usually 2 or 4 h (as indicated in Table 19), the animals were sacrificed and Aβ42 levels were analysed.
(§4) Blood was collected by decapitation and exsanguinations in EDTA-treated collection tubes. Blood was centrifuged at 1900 g for 10 minutes (min) at 4° C. and the plasma recovered and flash frozen for later analysis. The brain was removed from the cranium and hindbrain. The cerebellum was removed and the left and right hemisphere were separated. The left hemisphere was stored at −18° C. for quantitative analysis of test compound levels. The right hemisphere was rinsed with phosphate-buffered saline (PBS) buffer and immediately frozen on dry ice and stored at −80° C. until homogenization for biochemical assays.
(§5) Mouse brains from non-transgenic animals were resuspended in 8 volumes of 0.4% DEA (diethylamine)/50 mM NaCl containing protease inhibitors (Roche-11873580001 or 04693159001) per gram of tissue, e.g. for 0.158 g brain, add 1.264 ml of 0.4% DEA. All samples were homogenized in the FastPrep-24 system (MP Biomedicals) using lysing matrix D (MPBio #6913-100) at 6 m/s for 20 seconds. Homogenates were centrifuged at 221.300×g for 50 min. The resulting high speed supernatants were then transferred to fresh eppendorf tubes. Nine parts of supernatant were neutralized with 1 part 0.5 M Tris-HCl pH 6.8 and used to quantify Aβtotal and Aβ42.
(§6) To quantify the amount of Aβtotal and Aβ42 in the soluble fraction of the brain homogenates, Enzyme-Linked-Immunosorbent-Assays were used. Briefly, the standards (a dilution of synthetic Aβ1-40 and Aβ1-42, Bachem) were prepared in 1.5 ml Eppendorf tube in Ultraculture, with final concentrations ranging from 10000 to 0.3 pg/ml. The samples and standards were co-incubated with HRPO-labelled N-terminal antibody for Aβ42 detection and with the biotinylated mid-domain antibody 4G8 for Aβtotal detection. […] The plate was allowed to incubate overnight at 4° C. in order to allow formation of the antibody-amyloid complex. Following this incubation and subsequent wash steps the ELISA for Aβ42 quantification was finished by addition of Quanta Blu fluorogenic peroxidase substrate according to the manufacturer's instructions (Pierce Corp., Rockford, Ill.). A reading was performed after 10 to 15 min (excitation 320 nm/emission 420 nm).

Aβtotal = experiment: Demonstration of in vivo efficacy, brain Aβtotal lowering (ELISA); details: mouse brain
Excerpt: as §2, §3, §4, §5, §6
For Aβtotal detection, a Streptavidine-Peroxidase-Conjugate was added, followed 60 min later by an additional wash step and addition of Quanta Blu fluorogenic peroxidase substrate according to the manufacturer's instructions (Pierce Corp., Rockford, Ill.). A reading was performed after 10 to 15 min (excitation 320 nm/emission 420 nm).

P-gp = target: T1, P-gp (Homo sapiens, UniProt P08183); experiment: Transepithelial transport of test compounds through LLC-MDR1 monolayers; format: in vitro ADME; details: pig, LLC-PK1
T1 construct: expressed in transfected cells; host or cells: LLC-PK1 cells stably transduced with MDR1 (LLC-MDR1)
T1 sequence (P08183 whole entry): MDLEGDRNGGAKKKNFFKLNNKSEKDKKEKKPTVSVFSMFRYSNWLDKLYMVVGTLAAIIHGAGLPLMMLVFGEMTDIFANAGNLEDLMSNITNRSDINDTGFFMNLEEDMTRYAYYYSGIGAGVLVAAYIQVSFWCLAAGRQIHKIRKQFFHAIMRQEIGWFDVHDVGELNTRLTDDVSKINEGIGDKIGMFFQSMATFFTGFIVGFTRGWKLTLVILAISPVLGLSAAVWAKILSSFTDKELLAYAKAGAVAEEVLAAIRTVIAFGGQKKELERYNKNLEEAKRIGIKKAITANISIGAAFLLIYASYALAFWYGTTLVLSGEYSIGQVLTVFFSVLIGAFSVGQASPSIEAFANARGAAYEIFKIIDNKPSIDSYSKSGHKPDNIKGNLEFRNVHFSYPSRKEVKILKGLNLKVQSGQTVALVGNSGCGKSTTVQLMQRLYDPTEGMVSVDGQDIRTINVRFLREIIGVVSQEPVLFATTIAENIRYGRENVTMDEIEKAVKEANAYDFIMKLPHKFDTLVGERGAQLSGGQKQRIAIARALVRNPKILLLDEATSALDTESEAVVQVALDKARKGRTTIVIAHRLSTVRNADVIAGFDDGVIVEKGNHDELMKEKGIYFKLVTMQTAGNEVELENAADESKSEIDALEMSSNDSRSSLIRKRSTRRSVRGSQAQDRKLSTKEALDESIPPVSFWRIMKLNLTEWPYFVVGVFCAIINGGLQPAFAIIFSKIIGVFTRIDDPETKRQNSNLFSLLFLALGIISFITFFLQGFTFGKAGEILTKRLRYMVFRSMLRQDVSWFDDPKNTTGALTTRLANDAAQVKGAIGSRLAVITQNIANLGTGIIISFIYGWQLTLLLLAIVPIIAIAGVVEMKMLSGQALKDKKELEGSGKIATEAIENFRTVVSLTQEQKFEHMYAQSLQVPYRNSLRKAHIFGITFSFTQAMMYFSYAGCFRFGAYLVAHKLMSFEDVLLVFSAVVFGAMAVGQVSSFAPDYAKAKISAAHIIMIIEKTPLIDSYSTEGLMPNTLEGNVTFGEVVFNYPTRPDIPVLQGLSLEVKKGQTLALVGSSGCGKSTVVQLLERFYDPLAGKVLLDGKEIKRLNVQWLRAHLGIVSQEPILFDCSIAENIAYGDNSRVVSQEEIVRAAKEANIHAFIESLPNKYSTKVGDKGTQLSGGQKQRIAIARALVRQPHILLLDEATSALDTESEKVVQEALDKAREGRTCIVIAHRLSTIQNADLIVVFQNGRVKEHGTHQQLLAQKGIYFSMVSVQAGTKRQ
Experimental: Brief Assay Description for the Measurement of Transepithelial Transport of Test Compounds Through LLC-MDR1 Monolayers
The purpose of this assay was to assess both the in vitro passive permeability of test compounds and their ability to be transported substrates of P-gp using LLC-PK1 cells stably transduced with MDR1 in a trans-well system. The positive control for transport was ^3H-digoxin (30 nM) and the positive control inhibitor was GF120918 (5 μM). The marker compound for low permeability was ^14C-Mannitol (1 μM). The test compound concentration was 1 μM.
The integrity of the cellular monolayer was assessed in each incubation well through the inclusion of the fluorescent, low permeability marker compound, Fluorescein.
In detail, LLC-MDR1 cells were seeded on 24-well cell culture inserts (Millicell®-PCF, 0.4 μm, 13 mm diameter, 0.7 cm^2) at 400,000 cells/cm^2. Cell culture medium consisted of Medium 199 supplemented with 10% Foetal Bovine Serum (FBS) and 100 U/ml Penicillin/streptomycin and was replaced the day after seeding and the day before the experiment. The transport experiment was performed 5 days after seeding. On the day of the experiment, solutions of the test compounds were applied to the apical or basolateral side of the monolayers to assess transport in the A to B and B to A directions, respectively. The medium used in the assay was (OPTI-MEM (1×) (GIBCO) with 1 w/v % Bovine Serum Albumin. Inserts were incubated at 37° C. in a humidified incubator containing 5% CO2. Samples from the acceptor and donor compartments were collected after an incubation time of 120 min, to assess the permeability and to allow estimation of the test compound recovery during the experiment, respectively. Transport experiments were performed in triplicate. Absolute test compound concentrations were measured using LC-MS/MS and quantified via a calibration curve.

Row | SMILES | IC50 [1] | Cellular αLisa assay in SKNBE2 cells Abetatotal pIC50 (Abeta total) | Cellular αLisa assay in SKNBE2 cells Abeta 42 pIC50 (Abeta 1-42) | IC50 (Abeta total) | IC50 (Abeta 1-42) | Biochemical FRET based assay pIC50 [1] | Aβ42 (% Ctrl)_Mean (Aβ42; 30 mpk, s.c., 2 h) | Aβtotal (% Ctrl)_Mean (Aβtotal; 30 mpk, s.c., 2 h) | further results
1 | CC1(c2cccc(-c3cncnc3)c2)N=C(N)COC1(F)C(F)(F)F (single isomer, unassigned) [Compound 117] | 0.437 µM | 6.55 | 6.59 | – | – | – | 95 % Ctrl | 86 % Ctrl | –
2 | CC1(c2cc(NC(=O)c3ccc(C#N)cn3)ccc2F)N=C(N)COC1F (single isomer, unassigned) [Compound 124] | – | 8.2 | 8.21 | – | – | – | – | – | Aβ42 (% Ctrl)_Mean (Aβ42; 30 mpk, p.o., 4 h): 23 % Ctrl; Aβtotal (% Ctrl)_Mean (Aβtotal; 30 mpk, p.o., 4 h): 25 % Ctrl
3 | C[C@]1(c2cc(NC(=O)c3ncc(C#N)cc3Cl)ccc2F)N=C(N)CO[C@@H]1F [Compound 209] | 0.0398 µM | – | – | 0.0138 µM | 0.0155 µM | – | – | – | Aβ42 (% Ctrl)_Mean (Aβ42; 10 mpk, p.o., 4 h): 6 % Ctrl; Aβtotal (% Ctrl)_Mean (Aβtotal; 10 mpk, p.o., 4 h): 14 % Ctrl
4 | C[C@@]1(c2cccc(-c3cc(Cl)cc(Cl)c3)c2)COCC(N)=N1 [Compound 52] | – | 6.66 | 6.68 | – | – | 6.06 | 68 % Ctrl | 114 % Ctrl | –
5 | CC1(c2cccc(NC(=O)c3ccc(C(F)(F)F)cn3)c2)COCC(N)=N1 (racemic) [Compound 14] | – | 7.56 | 7.49 | – | – | 6.28 | – | – | Aβ42 (% Ctrl)_Mean (Aβ42; 30 mpk, s.c., 4 h): 107 % Ctrl; Aβtotal (% Ctrl)_Mean (Aβtotal; 30 mpk, s.c., 4 h): 116 % Ctrl
6 | CC1(c2cccc(-c3cncc(C#N)c3)c2)N=C(N)COC1C(F)(F)F (single isomer, unassigned) [Compound 204] | 0.363 µM | 7.06 | 7.05 | – | – | – | – | – | Aβ42 (% Ctrl)_Mean (Aβ42; 30 mpk, s.c., 4 h): 113 % Ctrl; Aβtotal (% Ctrl)_Mean (Aβtotal; 30 mpk, s.c., 4 h): 103 % Ctrl
7 | NC1=N[C@@](c2cc(NC(=O)c3ncc(Cl)cc3F)ccc2F)(C2CC2)[C@@H](F)OC1 [Compound 219] | 0.0933 µM | – | – | 0.282 µM | 0.309 µM | – | 95 % Ctrl | 86 % Ctrl | –
8 | CC1(c2cccc(-c3ccccc3)c2)COCC(N)=N1 (racemic) [Compound 1, rac-5-biphenyl-3-yl-5-methyl-5,6-dihydro-2H-1,4-oxazin-3-amine trifluoroacetate salt] | 24 µM | – | – | 1.02 µM | 1.48 µM | – | – | – | Aβ42 (% Ctrl)_Mean (Aβ42; 30 mpk, s.c., 4 h): 102 % Ctrl; Aβtotal (% Ctrl)_Mean (Aβtotal; 30 mpk, s.c., 4 h): 97 % Ctrl
9 | COc1cnc(C(=O)Nc2ccc(F)c([C@@]3(C)N=C(N)CO[C@@H]3F)c2)cn1 [Compound 123] | – | – | – | 0.0105 µM | 0.0107 µM | – | – | – | Aβ42 (% Ctrl)_Mean (Aβ42; 10 mpk, p.o., 4 h): 38 % Ctrl; Aβ42 (% Ctrl)_Mean (Aβ42; 10 mpk, s.c., 4 h): 24 % Ctrl; Aβtotal (% Ctrl)_Mean (Aβtotal; 10 mpk, p.o., 4 h): 38 % Ctrl; Aβtotal (% Ctrl)_Mean (Aβtotal; 10 mpk, s.c., 4 h): 21 % Ctrl

Now from value to molecule, other results behind:

Row | IC50 [1] | Cellular αLisa assay in SKNBE2 cells Abetatotal pIC50 (Abeta total) | Cellular αLisa assay in SKNBE2 cells Abeta 42 pIC50 (Abeta 1-42) | IC50 (Abeta total) | IC50 (Abeta 1-42) | Biochemical FRET based assay pIC50 [1] | SMILES | Aβ42 (% Ctrl)_Mean (Aβ42; 30 mpk, s.c., 2 h) | Aβtotal (% Ctrl)_Mean (Aβtotal; 30 mpk, s.c., 2 h) | further results
10 | – | – | – | 0.49 µM | 0.525 µM | – | COc1cnc(C(=O)Nc2ccc(F)c([C@@]3(C4CC4)N=C(N)CO[C@H]3F)c2)cn1 [Compound 217] | – | – | Aβ42 (% Ctrl)_Mean (Aβ42; 30 mpk, p.o., 2 h): 80 % Ctrl; Aβtotal (% Ctrl)_Mean (Aβtotal; 30 mpk, p.o., 2 h): 73 % Ctrl
11 | – | 7.88 | 7.91 | – | – | 6.93 | CC1(c2cccc(NC(=O)c3ccc(C#N)cn3)c2)COCC(N)=N1 (single isomer, unassigned) [Compound 50] | – | – | Aβ42 (% Ctrl)_Mean (Aβ42; 5 mpk, s.c., 4 h): 133 % Ctrl; Aβtotal (% Ctrl)_Mean (Aβtotal; 5 mpk, s.c., 4 h): 95 % Ctrl
12 | – | 7.35 | 7.31 | – | – | 6.67 | COc1cnc(C(=O)Nc2cccc(C3(C4CC4)N=C(N)COC3C(F)(F)F)c2)cn1 (stereo not drawn) [Compound 228] | – | – | Aβ42 (% Ctrl)_Mean (Aβ42; 30 mpk, p.o., 2 h): 99 % Ctrl; Aβtotal (% Ctrl)_Mean (Aβtotal; 30 mpk, p.o., 2 h): 79 % Ctrl
13 | 11.2 µM | 6.43 | 6.46 | – | – | – | CC1(c2cccc(-c3cncnc3)c2)N=C(N)COC1F (single isomer, unassigned) [Compound 96] | – | – | Aβ42 (% Ctrl)_Mean (Aβ42; 30 mpk, s.c., 4 h): 116 % Ctrl; Aβtotal (% Ctrl)_Mean (Aβtotal; 30 mpk, s.c., 4 h): 104 % Ctrl
14 | 0.126 µM | – | – | 0.832 µM | 0.851 µM | – | N#Cc1cnc(C(=O)Nc2ccc(F)c([C@@]3(C4CC4)N=C(N)CO[C@@H]3F)c2)c(Cl)c1 [Compound 218] | 99 % Ctrl | 90 % Ctrl | –
15 | 1.55 µM | – | – | 0.339 µM | 0.347 µM | – | COc1cncc(-c2cccc(C3(C)N=C(N)COC3F)c2)c1 (stereo not drawn) [Compound 100] | – | – | efflux ratio at 120 min, 1 μM (P-gp; LLC-MDR1 monolayers, ratio of B to A and A to B permeation rates, read-out: BA/AB): 3.6; Papp A→B at 120 min, 1 μM (P-gp; read-out: A to B (Apparent Permeability, Papp)): 7.6 ×10⁻⁶ cm/s; Papp B→A at 120 min, 1 μM (P-gp; read-out: B to A (Apparent Permeability, Papp)): 27.4 ×10⁻⁶ cm/s; melting point: 139.2 °C
16 | – | 6.417 | 6.44 | – | – | 5.36 | CC1(c2cc(-c3cncnc3)c(F)cc2F)COCC(N)=N1 (racemic) [Compound 59] | 114 % Ctrl | 95 % Ctrl | –
